From the NIST ThermoML archive (doi:10.1016/j.jct.2014.09.011)

Experiment: mn = molality of the nth substance listed, in mol/kg
Conditions: 101.3 kPa, Liquid; for speed of sound: Frequency=2 MHz, Linear variable-path acoustic interferometer; for mass density: Pycnometric method

C=C[C@H]1CN2CC[C@H]1C[C@H]2[C@H](O)c1ccnc2ccc(OC)cc12.Cl [quinine hydrochloride] + O
Conditions | mass density [kg/m3] | speed of sound [m/s]
278.15 K, m1 = 0.0127 | 1001.09 | 1429.3
278.15 K, m1 = 0.0177 | 1001.51 | 1430.5
278.15 K, m1 = 0.0225 | 1001.92 | 1431.7
278.15 K, m1 = 0.0287 | 1002.46 | 1433.3
278.15 K, m1 = 0.0332 | 1002.86 | 1434.4
278.15 K, m1 = 0.0402 | 1003.44 | 1436.2
278.15 K, m1 = 0.048 | 1004.11 | 1438.1
278.15 K, m1 = 0.0603 | 1005.15 | 1441.1
278.15 K, m1 = 0.0653 | 1005.57 | 1442.4
278.15 K, m1 = 0.0698 | 1005.93 | 1443.5
278.15 K, m1 = 0.0798 | 1006.76 | 1446
278.15 K, m1 = 0.09 | 1007.59 | 1448.5
278.15 K, m1 = 0.0987 | 1008.29 | 1450.7
288.15 K, m1 = 0.0106 | 1000.01 | 1468.3
288.15 K, m1 = 0.0163 | 1000.5 | 1469.6
288.15 K, m1 = 0.022 | 1000.99 | 1470.9
288.15 K, m1 = 0.0294 | 1001.64 | 1472.5
288.15 K, m1 = 0.0361 | 1002.19 | 1474
288.15 K, m1 = 0.0396 | 1002.48 | 1474.8
288.15 K, m1 = 0.0491 | 1003.28 | 1477
288.15 K, m1 = 0.0552 | 1003.79 | 1478.3
288.15 K, m1 = 0.0598 | 1004.17 | 1479.3
288.15 K, m1 = 0.0687 | 1004.9 | 1481.4
288.15 K, m1 = 0.0785 | 1005.7 | 1483.6
288.15 K, m1 = 0.0881 | 1006.49 | 1485.7
288.15 K, m1 = 0.1019 | 1007.59 | 1488.8
298.15 K, m1 = 0.0109 | 997.96 | 1499.2
298.15 K, m1 = 0.0125 | 998.1 | 1499.4
298.15 K, m1 = 0.0199 | 998.7 | 1501.1
298.15 K, m1 = 0.0248 | 999.09 | 1502.2
298.15 K, m1 = 0.0286 | 999.45 | 1502.9
298.15 K, m1 = 0.0378 | 1000.17 | 1504.9
298.15 K, m1 = 0.0473 | 1000.94 | 1506.9
298.15 K, m1 = 0.0544 | 1001.52 | 1508.5
298.15 K, m1 = 0.0594 | 1001.93 | 1509.4
298.15 K, m1 = 0.0677 | 1002.6 | 1511.4
298.15 K, m1 = 0.0785 | 1003.46 | 1513.7
298.15 K, m1 = 0.0881 | 1004.22 | 1515.8
298.15 K, m1 = 0.0987 | 1005.05 | 1518.1

O [water] + C=C[C@H]1CN2CC[C@H]1C[C@H]2[C@H](O)c1ccnc2ccc(OC)cc12.Cl
278.15 K, m2 = 0
Conditions | mass density [kg/m3] | speed of sound [m/s]
– | 999.96 | 1426.2

O [water] + Cl.N=C(N)N
278.15 K, m2 = 0
Conditions | mass density [kg/m3] | speed of sound [m/s]
– | 999.96 | 1426.2

O [water] + O=C(O)[C@]1(O)C[C@@H](O)[C@@H](O)[C@H](O)C1
278.15 K, m2 = 0
Conditions | mass density [kg/m3] | speed of sound [m/s]
– | 999.96 | 1426.2
